Measured values as given in paper PMC10733463, “Berberine-microbiota interplay: orchestrating gut health through modulation of the gut microbiota and metabolic transformation into bioactive metabolites” (Frontiers in Pharmacology, 2023).

Experiments:
[1] = system: B. coccoides (DSM 935); conditions: DSM 935, chicken, 10 µg/mL, pH 6
Experimental: (§1) Six strains were tested for their ability to convert berberine into berberine-demethylated metabolites. […] Strains were sub-cultured overnight in M2GSC medium pH 6. The next day, caecal content from a 3-week-old broiler chicken was sampled in anaerobic conditions and 1:1,000 diluted in M2GSC medium pH 6 containing 10 μg/mL berberine. Caecal mixtures were enriched with 1:100 diluted overnight cultures of single bacteria, or with M2GSC (control), and incubated in a 24-well plate, for 48 h. […] Samples were collected and processed as described before. Each bacterial strain was tested in triplicate at 37°C–40°C under anaerobic conditions.
(§2) The UPLC instrument consisted of an Acquity H-Class Quaternary Solvent Manager and an Acquity FTN Sample Manager (Waters, Berchem, Belgium). For chromatographic separation, an Acquity UPLC® HSS T3 column (1.8 µm, 100 mm × 2.1 mm i.d.) was used, protected by a precolumn of the same type (VanGuardTM, 5 mm × 2.1 mm i.d.), both from Waters. […] The column temperature was maintained at 25°C. The autosampler temperature was set at 10°C. The UPLC effluent was sent from 1.2 min to 9.5 min by use of a divert valve to a Xevo TQ-S® triple quadrupole mass spectrometer from Water, equipped with an ESI ion source operating in the positive ionization mode from. The UPLC-MS/MS analysis was run under control of MassLynx software (v4.1), which was used for subsequent data processing as well. For the injection of 1/5 diluted intestinal content samples (see section Preparation of intestinal content samples (ileum and caecum)), the divert valve was used in addition from 7.1 min to 8.4 min to deviate the high amount of berberine and associated IS berberine-d6 eluting in that time window from the UPLC column directly to the waste, rather than to the MS detector to avoid oversaturation of the instrument, influencing subsequent sample extract injections at well. Operating conditions for the ESI source used in the positive ionization mode were optimized by direct infusion of all individual components in combination with the mobile phase at 50% A/50% B delivered at a flow rate of 0.3 mL/min. The following tune parameters were used for detection of all components: capillary voltage, 3 kV, cone voltage, 10 V, source offset, 50 V, source temperature, 150°C, desolvation temperature, 500°C, desolvation gas flow, 800 L/h, cone gas flow, 150 L/h, collision gas flow, 0.2 mL/min, ion energy 1 and 2, 0.5, LM 1 and LM 2 resolution, 3, HM 1 and HM 2 resolution, 15. Components were detected in MS/MS mode using component specific MRM (Multiple Reaction Monitoring) transitions (Supplementary Table S1). Since a commercial standard of thalifendine was not available, MS/MS detection parameters and calibration of berberrubine were used for the detection and quantification of thalifendine, which is a reasonable approach, since both compounds are isomers. No commercial reference standards were available for phase II metabolites, therefore “calculated” MRM transitions were defined as follows: [M + -Gluc] > M+ for glucuronide forms and [M + -SO3] > M+ for sulfate forms, where the loss of glucuronic acid or sulfate corresponded to a mass shift of 176 Da or 80 Da respectively. Phase II metabolites were quantified relatively using the berberine calibration curve ([Wang et al., 2017a]; [Kwon et al., 2020]).

[2] = system: Blautia luti (DSM 14534); conditions: DSM 14534, chicken, 10 µg/mL, pH 6
Experimental: as §1, §2

[3] = system: Blautia hansenii (DSM 20583); conditions: DSM 20583, chicken, 10 µg/mL, pH 6
Experimental: as §1, §2

[4] = system: Anaerostipes butyraticus (35–7); conditions: 35-7, chicken, 10 µg/mL, pH 6
Experimental: as §1, §2

[5] = system: Blautia hydrogenotrophica (DSM 10507); conditions: DSM 10507, chicken, 10 µg/mL, pH 6
Experimental: as §1, §2

SMILES | Log2(fold change) of metabolite response at 48 h, culture with bacteria over control (berberine-medium + microbiota) [1] | Log2(fold change) of metabolite response at 48 h, culture with bacteria over control (berberine-medium + microbiota) [2] | Log2(fold change) of metabolite response at 48 h, culture with bacteria over control (berberine-medium + microbiota) [3] | Log2(fold change) of metabolite response at 48 h, culture with bacteria over control (berberine-medium + microbiota) [4] | Log2(fold change) of metabolite response at 48 h, culture with bacteria over control (berberine-medium + microbiota) [5]
COc1cc2c(cc1O)CC[n+]1cc3c(OC)c(OC)ccc3cc1-2 [Jatrorrhizine, Jatrorrhizine chloride] | -0.23 | -0.36 | -0.06 | -0.05 | 0.03
COc1ccc2cc3[n+](cc2c1O)CCc1cc2c(cc1-3)OCO2 [Berberrubine, berberrubine chloride] | -1.64 | -1.71 | -0.15 | 0.03 | -0.10
